Usually Ki stands for the dissociation constant of the complex between target and ligand, obtained from inhibition or displacement.

Ten compounds from patent publication US6197963A, “Non-peptide peptidomimetics” (The Trustees of the University of Pennsylvania, priority 1998, dated 2001) can be followed below.

The subject of experiment [1] is SRIF receptors on AtT-20 cells. Briefly: Binding at SRIF receptors of AtT-20 cells (Examples 104-110, Tables 1-3). More on the design: species or system mouse.
The target of a further experiment is hSSTR4 (Homo sapiens, UniProt P31391). The experiment can be described thus: Binding at human SRIF receptor subtype hSSTR4. The conditions noted are these: TABLE 3; read-out: hSSTR 4 Ki.
Chain of hSSTR4 (P31391 whole entry): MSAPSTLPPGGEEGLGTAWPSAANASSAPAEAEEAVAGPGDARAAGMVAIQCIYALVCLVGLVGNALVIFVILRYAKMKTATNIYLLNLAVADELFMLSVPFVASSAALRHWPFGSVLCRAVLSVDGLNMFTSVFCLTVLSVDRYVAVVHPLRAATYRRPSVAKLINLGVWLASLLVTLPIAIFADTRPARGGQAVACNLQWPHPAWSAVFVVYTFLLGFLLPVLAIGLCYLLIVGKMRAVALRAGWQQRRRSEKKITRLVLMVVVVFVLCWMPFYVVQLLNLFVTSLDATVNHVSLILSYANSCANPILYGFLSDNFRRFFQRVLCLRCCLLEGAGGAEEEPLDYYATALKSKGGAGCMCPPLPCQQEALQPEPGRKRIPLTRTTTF
A further experiment has as its target hSSTR3 (Homo sapiens, UniProt P32745). Briefly: Binding at human SRIF receptor subtype hSSTR3. The conditions noted are these: TABLE 3; read-out: hSSTR 3 Ki.
A further experiment concerns five hSSTRs. The experiment can be described thus: Profile / average over the five human SRIF receptor subtypes. Type of experiment: binding.
The target in the next experiment is NK-1 receptor (Homo sapiens, UniProt P25103). Briefly: Binding at the NK-1 receptor (Examples 109-110).
Chain of NK-1 receptor (P25103 whole entry): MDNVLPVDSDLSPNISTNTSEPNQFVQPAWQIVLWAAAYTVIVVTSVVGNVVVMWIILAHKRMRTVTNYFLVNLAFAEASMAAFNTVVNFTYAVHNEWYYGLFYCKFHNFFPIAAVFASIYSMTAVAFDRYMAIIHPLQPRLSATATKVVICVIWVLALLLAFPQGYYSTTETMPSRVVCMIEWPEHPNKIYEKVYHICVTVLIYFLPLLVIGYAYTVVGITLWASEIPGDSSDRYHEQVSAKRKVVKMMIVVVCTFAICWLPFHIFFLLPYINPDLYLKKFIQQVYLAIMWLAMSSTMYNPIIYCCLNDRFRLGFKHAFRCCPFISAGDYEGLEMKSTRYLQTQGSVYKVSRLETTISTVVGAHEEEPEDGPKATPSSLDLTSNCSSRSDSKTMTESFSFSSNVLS
Setting [2] is: TABLE 1 (Example 105), read-out: AtT-20 cells 50 IC.

Where two headings read alike, the source gives them in different places.

Chain of hSSTR3 (P32745 whole entry): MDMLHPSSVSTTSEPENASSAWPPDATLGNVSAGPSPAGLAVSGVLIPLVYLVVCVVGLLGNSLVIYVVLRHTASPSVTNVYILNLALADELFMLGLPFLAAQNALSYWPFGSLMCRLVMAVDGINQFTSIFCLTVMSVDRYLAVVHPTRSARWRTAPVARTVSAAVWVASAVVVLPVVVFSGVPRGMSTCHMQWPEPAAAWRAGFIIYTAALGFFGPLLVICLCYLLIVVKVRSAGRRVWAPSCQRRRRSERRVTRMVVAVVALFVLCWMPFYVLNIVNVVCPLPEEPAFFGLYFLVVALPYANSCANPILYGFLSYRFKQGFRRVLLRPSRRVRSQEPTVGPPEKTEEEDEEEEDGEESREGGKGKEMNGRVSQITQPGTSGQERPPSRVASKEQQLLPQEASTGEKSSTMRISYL

In the case of `NCCCCCCOC[C@H]1O[C@@H](OCCc2c[nH]c3ccccc23)[C@H](OCc2ccccc2)C[C@@H]1OCc1ccccc1` [III-5b, 2-(1H-Indol-3-yl)ethyl 2,4-Di-O-benzyl-3-deoxy-6-O-(6-aminohexyl)-β-D-glucopyranoside], the IC50 in experiment [1] (setting [2]) was 7 µM.
As for `CO[C@@H]1O[C@H](COCCCCCN)C[C@H](OCc2ccccc2)[C@H]1OCc1ccccc1` [III-10, Methyl 2,3-Di-O-benzyl-4-deoxy-6-O-(5-aminopentyl)-β-D-glucopyranoside], the “activity / affinity at SRIF receptors of AtT-20 cells” value in experiment [1] is “inactive”. In addition, the IC50 in experiment [1] (setting [2]) was more than 10 µM.
For `NCCCCCOC[C@@H]1O[C@H](OCCc2c[nH]c3ccccc23)[C@H](OCc2ccccc2)[C@H](OCc2ccccc2)[C@H]1OCc1ccccc1` [IV-22, 2-(1H-Indol-3-yl)ethyl 2,3,4-tri-O-benzyl-6-O-(5'-aminopentyl)-β-L-mannopyranoside], the Ki at hSSTR4 worked out at 1.9 µM; on hSSTR3 it was 3.3 µM. The “hSSTR subtype affinity profile” value in the experiment on five hSSTRs was “high affinities for hSSTR2 and hSSTR4 and a low affinity for SSTR1”.
For `CO[C@@H]1O[C@H](COCCCCCN)[C@@H](OCc2ccccc2)[C@H](OCc2ccccc2)[C@H]1OCc1c[nH]cn1` [IV-30, Methyl 2-O-(4'-methylene-1H-imidazole)-3,4-di-O-benzyl-6-O-(5'-aminopentyl)-β-D-glucopyranoside], the IC50 in experiment [1] (setting [2]) was more than 10 µM.
`CO[C@@H]1O[C@H](COCCCCCN)[C@@H](OCc2ccccc2)[C@H](OCc2c[nH]cn2)[C@H]1OCc1ccccc1` [IV-39, Methyl 2,4-di-O-benzyl-3-O-(4'-methylene-1H-imidazole)-6-O-(5'-aminopentyl)-β-D-glucopyranoside]: the IC50 in experiment [1] (setting [2]) and in experiment [1] (read-out: IC50 at AtT-20 cell membranes) was 5.6 µM throughout.
Consider `Fc1ccc(COC[C@H]2O[C@@H](OCCc3c[nH]c4ccccc34)[C@H](OCc3ccc4ccccc4c3)[C@@H](OCc3ccccc3)[C@@H]2OCc2ccccc2)cc1` [IV-79, (+)-2-(1H-indol-3-yl)ethyl-3,4-di-O-benzyl-6-O-(4-fluorobenzyl)-2-O-(2-naphthyl)methyl-β-D-glucopyranoside], for which the “binding of the NK-1 receptor” value at NK-1 receptor is recorded as “did not bind the NK-1 receptors”.
Still for that read-out and setting: the value for `Fc1ccc(OC[C@H]2O[C@@H](OCCc3c[nH]c4ccccc34)[C@H](OCc3ccc4ccccc4c3)[C@@H](OCc3ccccc3)[C@@H]2OCc2ccccc2)cc1` [IV-81, (+)-2-(1H-indol-3-yl)ethyl-3,4-di-O-benzyl-6-O-(4-fluorophenyl)-2-O-(2-naphthyl)methyl-β-D-glucopyranoside] was “did not bind the NK-1 receptors”; that for `Fc1ccc(CO[C@H]2[C@H](OCCc3c[nH]c4ccccc34)O[C@H](COCc3ccc4ccccc4c3)[C@@H](OCc3ccccc3)[C@@H]2OCc2ccccc2)cc1` [IV-84, (+)-2-(1H-inclol-3-yl) ethyl-3, li-di-O-Benzyl 2-O-(4-fluorobenzyl)-B-D-glucopyranoside] was “did not bind the NK-1 receptors”.
In the case of `CC(=O)NCCCCCOC[C@H]1O[C@@H](OCCc2c[nH]c3ccccc23)[C@H](OCc2ccc3ccccc3c2)[C@@H](OCc2ccccc2)[C@@H]1OCc1ccccc1` [IV-92, (+)-2-(1H-indol-3-yl)ethyl-6-O-(N-acetyl-5-aminopentyl)-3,4-di-O-benzyl-2-O-(2-naphthyl)methyl-β-D-glucopyranoside], on NK-1 receptor, the “binding of the NK-1 receptor” value is given as “did not bind the NK-1 receptors”. The IC50 at NK-1 receptor (read-out: IC50 at the NK-1 receptor) is 0.209 µM.
For the compound `CC(=O)NCCCCCOC[C@H]1O[C@@H](OCCc2c[nH]c3ccccc23)[C@H](OCc2ccccc2)[C@@H](OCc2ccccc2)[C@@H]1O` [IV-99, (-)-2-(1H-indol-3-yl)ethyl-6-O-(N-acetyl-5-aminopentyl)-2,3-di-O-benzyl-β-D-glucopyranoside], the IC50 at NK-1 receptor (read-out: affinity at the NK-1 receptor) is 0.027 µM.
